Assays:
Bean Leaf Beetle [1] = assay: Field trial, stomach poison test; format: in vivo
Protocol: (§1) Leaves from the infested plant are treated with different concentrations of the test compounds, either by spraying with a DeVilbiss Special Atomizer (5004) at 10 psi or by dipping the leaves in solutions containing the compound. The leaves are then allowed to air dry.
(§2) After the leaves have dryed, they are placed in plastic petri dishes (100 × 25 mm), then the insects are counted out into each dish, five or ten insects per dish depending on the number of insects available. There are one or two replicates and usually two or three rates with each compound. Mortality results are taken at 24, 48 and 72 hours. The rating scale is 0 to 9.
(§3) Using the above methods, field trials were carried out against species of 5 orders of insects. The results, which are summarized in the following tables, give the average mortality for the particular insect with a given benzimidazole for each concentration employed. […] These tables contain all results obtained during the summer trials.

[2] = test system: Red-Legged Grasshopper Adults; assay: Field trial, stomach poison test; format: in vivo
Protocol: as §1, §2, §3

[3] = test system: Potato Flea Beetle Adults; assay: Field trial, stomach poison test; format: in vivo
Protocol: as §1, §2, §3

Confused Flour Beetle = assay: Field trial (first summer), topical; format: in vivo; conditions: .078125 μg/μl
Protocol: (§4) In a variation of the above test, 1 microliter of a test solution containing a predetermined number of micrograms of benzimidazole was applied directly to larvae or adult insects.
(§5) During the previous summer similar field trials were conducted employing the same tests as heretofore but with some additional species of insects not included in the later tests. The results listed below are for tests in which an insect mortality was established by a given application route and at a given concentration in a particular test. The same 0 - 9 scoring system is used as is the designation of compounds by alphabetical symbols.

Picnic Beetle = assay: Field trial (first summer), topical; format: in vivo; conditions: .078125 μg/μl
Protocol: as §4, §5

Bean Leaf Beetle [4] = assay: Field trial, contact poison test; format: in vivo
Excerpt: (§6) Infested plants are placed in 6 oz. prescription bottles filled with water to keep them from wilting. Cellucotton is wrapped around the plant stem and squeezed into the bottle neck to prevent the insects from drowning.
(§7) A DeVilbiss Special Atomizer (5004) is used at 10 psi to spray the test plant with different concentrations of compounds. The atomizer is held at arm's length to prevent blowing the insects off the host plant. After treating, the bottles are placed on a table covered with brown wrapping paper to catch the dead insects as they drop from the plant. The plants are spaced so the leaves or plants are not touching one another.
(§8) The results are read at 24, 48, and 72 hours when applicable. The rating scale is 0 to 9 where 0 = 0-10 percent and 9 = 91-100 percent mortality.
as §3

[5] = test system: Red-Legged Grasshopper Adults; assay: Field trial, contact poison test; format: in vivo
Excerpt: as §6, §7, §8, §3

[6] = test system: Potato Flea Beetle Adults; assay: Field trial, contact poison test; format: in vivo
Excerpt: as §6, §7, §8, §3

Boll Weevil = assay: Field trial (first summer), topical; format: in vivo, Anthonomus grandis; conditions: .15625 μg/μl
Protocol: as §4, §5

[7] = test system: Striped Cucumber Beetle Adults; assay: Field trial, stomach poison test; format: in vivo; parameters: key: mortality rating on a 0 to 9 scale
Protocol: as §1, §2, §3

Yellow Mealworm Larvae = assay: Field trial, topical application; format: in vivo; parameters: key: 0 = 0-10% mortality, 9 = 91-100% mortality (0-9 scale)
Protocol: as §8, §4, §3

Meadow Spittlebug = assay: Field trial, stomach poison test; format: in vivo
Protocol: as §1, §2, §3

Aphids - Apple = assay: Field trial, stomach poison test; format: in vivo
Protocol: as §1, §2, §3

Aphids - Sour Gum = assay: Field trial, stomach poison test; format: in vivo
Protocol: as §1, §2, §3

Aphids - Tulip Tree = assay: Field trial, stomach poison test; format: in vivo
Protocol: as §1, §2, §3

[8] = test system: Two-Spotted Spider Mite (2-SSM); assay: Miticide test, acute mortality, foliar spray; format: in vivo, Tetranychus urticae
Protocol: Each 5 mg. sample of technical compound preweighed at Greenfield was dissolved in 2.5 ml. of acetone and diluted with 247.5 ml. of water containing a combination of […]
(§9) The treated cuttings were stored in the greenhouse for 24 hours before evaluation under a binocular disecting microscope in the laboratory. In evaluating the results of the miticide test, each treated cutting was removed from the test tube, observed for live and dead mites at 14 × magnification, and returned immediately to the test tube. A scale of 0-9 was used as before.
The test employing two-spotted spider mites was conducted in similar fashion except that the mites were maintained on squash seedlings or squash cuttings.

Squash Bug Adults = assay: Field trial, contact poison test; format: in vivo; parameters: key: 0-9 rating: 0 = 0-10% mortality, 9 = 91-100% mortality
Excerpt: as §6, §7, §8, §3

Citrus Rust Mite (CRM) = assay: Miticide test, acute mortality, foliar spray; format: in vivo; conditions: after 72 hours
Protocol: Citrus cuttings were obtained and prepared for testing within 24 hours prior to inoculation with citrus rust mites. To prepare the cuttings, terminals of branches 12 to 14 inches in length were cut from temple orange trees, immediately placed in tap water and taken into the laboratory. Uniform hardwood cuttings, 3 to 4 inches in length, were cut from the branches, all but one hardened leaf was removed from the cuttings, and the remaining leaf was wiped clean with a cotton pad soaked in 10% ethanol solution. Each cutting was immediately placed in tap water in a test tube with the closed leaf extending out of the test tube. Then, a ring of melted lanolin was applied around the petiole to prevent migration of mites from the leaf. One cutting was used for each replicate.
When the leaves were dry immediately after cleaning, citrus rust mites were transferred to the test leaves by cutting a heavily infested colony leaf (from a source colony maintained on citrus seedlings) into 20 to 22 sections (approximately 0.25 by 0.5 inches in size) and using forceps to place 1 section on each leaf cutting. As the section became desiccated the mites moved to the whole leaf and in 20 hours the sections were removed from the leaves for treatment application.
Treatments were applied within 24 hours after inoculation by removing the cuttings from the test tube and submerging the leaves in the treatment solution for 5 seconds by hand and immediately returning the cutting to the test tube. […]
as §9

[9] = test system: Southern Corn Rootworm Adults; assay: Field trial, contact poison test; format: in vivo
Excerpt: as §6, §7, §8, §3

[10] = test system: Unidentified Green Leafhopper; assay: Field trial, stomach poison test; format: in vivo; parameters: key: mortality rating on a 0 to 9 scale
Protocol: as §1, §2, §3

[11] = test system: Tarnished Plant Bug Adults; assay: Field trial, stomach poison test; format: in vivo; parameters: key: mortality rating on a 0 to 9 scale
Protocol: as §1, §2, §3

[12] = test system: Southern Corn Rootworm Adults; assay: Field trial, stomach poison test; format: in vivo; parameters: key: mortality rating on a 0 to 9 scale
Protocol: as §1, §2, §3

SMILES: O=[N+]([O-])c1cc(C(F)(F)F)cc2nc(C(F)F)[nH]c12 [Q, 2-difluoromethyl-4-nitro-6-trifluoromethylbenzimidazole]
- average mortality rating (Bean Leaf Beetle [1]; 10 ppm): 0 (0-10 percent)
- average mortality rating (Bean Leaf Beetle [1]; 25 ppm): 0 (0-10 percent)
- average mortality rating (Bean Leaf Beetle [1]; 50 ppm): 0 (0-10 percent)
- average mortality rating ([2]; 10 ppm): 1
- average mortality rating ([2]; 25 ppm): 1
- average mortality rating ([2]; 50 ppm): 5
- average mortality rating ([3]; 5 ppm): 0 (0-10 percent)
- average mortality rating ([3]; 10 ppm): 1
- average mortality rating ([3]; 25 ppm): 1
- average mortality rating ([3]; 50 ppm): 5
- insect mortality rating (Confused Flour Beetle): 7
- insect mortality rating (Picnic Beetle): 9 (91-100 percent mortality)
- average mortality rating (Bean Leaf Beetle [4]; 25 ppm): 0 (0-10 percent)
- average mortality rating (Bean Leaf Beetle [4]; 50 ppm): 0 (0-10 percent)
- average mortality rating (Bean Leaf Beetle [4]; 100 ppm): 0 (0-10 percent)
- average mortality rating ([5]; 10 ppm): 0 (0-10 percent)
- average mortality rating ([5]; 25 ppm): 4
- average mortality rating ([5]; 50 ppm): 5
- average mortality rating ([6]; 10 ppm): 3
- average mortality rating ([6]; 25 ppm): 6
- average mortality rating ([6]; 50 ppm): 8
- insect mortality rating (Boll Weevil): 5
- average mortality rating ([7]; 10 ppm): 2
- average mortality rating ([7]; 25 ppm): 3
- average mortality rating ([7]; 50 ppm): 2
- average mortality rating ([7]; 100 ppm): 2
- average mortality rating (Yellow Mealworm Larvae; 0.03 μg/μl): 1
- average mortality rating (Yellow Mealworm Larvae; 0.07 μg/μl): 4
- average mortality rating (Yellow Mealworm Larvae; 0.15 μg/μl): 7

SMILES: CCOC(=O)n1c(C(F)(F)F)nc2c([N+](=O)[O-])cc(C(F)(F)F)cc21 [U, ethyl 4-nitro-2,6-bis(trifluoromethyl)benzimidazolecarboxylate]
- average mortality rating (Meadow Spittlebug; 10 ppm): 5
- average mortality rating (Meadow Spittlebug; 25 ppm): 5
- average mortality rating (Meadow Spittlebug; 50 ppm): 3
- average mortality rating (Meadow Spittlebug; 100 ppm): 0 (0-10 percent)
- average mortality rating (Aphids - Apple; 25 ppm): 2
- average mortality rating (Aphids - Apple; 50 ppm): 4
- average mortality rating (Aphids - Apple; 100 ppm): 6
- average mortality rating (Aphids - Sour Gum; 25 ppm): 9 (91-100 percent mortality)
- average mortality rating (Aphids - Sour Gum; 50 ppm): 7
- average mortality rating (Aphids - Sour Gum; 100 ppm): 9 (91-100 percent mortality)
- average mortality rating (Aphids - Tulip Tree; 25 ppm): 6
- average mortality rating (Aphids - Tulip Tree; 50 ppm): 8
- average mortality rating (Aphids - Tulip Tree; 100 ppm): 9 (91-100 percent mortality)
- acute mortality rating ([8]; 6.25 ppm): 1
- acute mortality rating ([8]; 12.5 ppm): 3
- acute mortality rating ([8]; 25 ppm): 8
- acute mortality rating ([8]; 50 ppm): 8
- acute mortality rating ([8]; 100 ppm): 9 (91-100 percent mortality)
- average mortality rating (Squash Bug Adults; 125 ppm): 5
- average mortality rating (Squash Bug Adults; 250 ppm): 5
- average mortality rating (Squash Bug Adults; 500 ppm): 7
- average mortality rating (Squash Bug Adults; 750 ppm): 7
- acute mortality rating (Citrus Rust Mite (CRM); 6.25 ppm): 1
- acute mortality rating (Citrus Rust Mite (CRM); 12.5 ppm): 1
- acute mortality rating (Citrus Rust Mite (CRM); 25 ppm): 9 (91-100 percent mortality)
- acute mortality rating (Citrus Rust Mite (CRM); 50 ppm): 9 (91-100 percent mortality)
- acute mortality rating (Citrus Rust Mite (CRM); 100 ppm): 8
- average mortality rating ([5]; 25 ppm): 9 (91-100 percent mortality)
- average mortality rating ([5]; 50 ppm): 9 (91-100 percent mortality)
- average mortality rating ([9]; 25 ppm): 4
- average mortality rating ([9]; 50 ppm): 9 (91-100 percent mortality)
- average mortality rating ([9]; 100 ppm): 9 (91-100 percent mortality)
- average mortality rating ([7]; 10 ppm): 2
- average mortality rating ([7]; 25 ppm): 1
- average mortality rating ([7]; 50 ppm): 4
- average mortality rating ([7]; 100 ppm): 9 (91-100 percent mortality)
- average mortality rating ([10]; 10 ppm): 3
- average mortality rating ([10]; 25 ppm): 7
- average mortality rating ([10]; 50 ppm): 9 (91-100 percent mortality)
- average mortality rating ([11]; 10 ppm): 0 (0-10 percent)
- average mortality rating ([11]; 25 ppm): 1
- average mortality rating ([11]; 50 ppm): 6
- average mortality rating ([12]; 25 ppm): 5
- average mortality rating ([12]; 50 ppm): 3
- average mortality rating ([12]; 100 ppm): 3
- average mortality rating (Yellow Mealworm Larvae; 0.03 μg/μl): 4
- average mortality rating (Yellow Mealworm Larvae; 0.07 μg/μl): 4
- average mortality rating (Yellow Mealworm Larvae; 0.15 μg/μl): 6

— US4122184A, “Benzimidazole insecticides” (priority 1977, dated 1978)
